We go through 8 compounds from patent US20220289668A1 (PHARMALEADS, priority 2019, published 2022).

Structures are written as SMILES.

For orientation: Ki means a measure of affinity in units of concentration, obtained from inhibition or displacement.

Experiment [1] deals with T1, LTA4H (Homo sapiens, UniProt P09960).
T1 sequence (P09960 1-611): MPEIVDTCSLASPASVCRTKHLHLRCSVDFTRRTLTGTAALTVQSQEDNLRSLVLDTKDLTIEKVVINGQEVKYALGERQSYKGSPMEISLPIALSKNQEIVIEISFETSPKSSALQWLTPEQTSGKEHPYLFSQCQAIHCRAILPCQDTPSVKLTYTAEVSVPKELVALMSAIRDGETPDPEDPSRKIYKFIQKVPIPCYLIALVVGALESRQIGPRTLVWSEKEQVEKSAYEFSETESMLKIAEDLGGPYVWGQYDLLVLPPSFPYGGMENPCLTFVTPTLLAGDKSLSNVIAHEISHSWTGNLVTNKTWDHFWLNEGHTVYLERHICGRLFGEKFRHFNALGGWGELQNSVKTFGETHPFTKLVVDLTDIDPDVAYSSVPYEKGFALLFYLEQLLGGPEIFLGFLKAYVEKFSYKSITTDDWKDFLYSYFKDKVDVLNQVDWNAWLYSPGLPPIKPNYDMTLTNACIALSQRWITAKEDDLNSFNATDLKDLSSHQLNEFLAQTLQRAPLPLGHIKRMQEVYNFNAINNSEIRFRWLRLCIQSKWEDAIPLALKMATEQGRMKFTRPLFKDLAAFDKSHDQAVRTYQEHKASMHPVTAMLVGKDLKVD
Put plainly: LTA4 hydrolase assay, substrate (L)-Ala-β-naphthylamide. The note with it: recombinant enzyme 0.6 μg/mL, substrate 1 mM, 50 mM Tris HCl pH 7.4, 100 mM NaCl, 37° C.; read-out: LTA4H (nM), inhibitory power Ki. In kind it is biochemical. As to the method: (§1) The claimed inhibitors were tested on different Zn^2+ peptidases representative of this family of enzymes, capable of inhibiting them, such as type 1 neprilysin (E.C.3.4.24.11, NEP-1), neutral aminopeptidase (E.C.3.4.11.2, APN) and LTA4H.
(§2) The assays are carried out on […] in the presence of fluorigenic substrates specific for each enzyme.
(§3) Generally speaking, the inhibitors are pre-incubated, in increasing concentrations, with the enzyme for 10 min, at 37° C. The substrate is then added and the mixture is incubated for 30 to 60 min at 37° C. The reaction is stopped at 4° C. and the reading of the fluorescence emitted is done by reading the Berthold Twinkle LS970B plate. An inhibition curve is then plotted as a function of the concentration of inhibitor using GraphPad software, then the Ki is determined from the Cheng Prusoff formula: Ki=IC50/(1+(S/Km)).
To determine the Ki values of the different inhibitors with regard to LTA4H, 0.6 μg/mL of recombinant enzyme were incubated beforehand for 30 minutes at 37° C. in 50 mM Tris HCl, pH 7.4, 100 mM NaCl, with increasing concentrations of inhibitor (from 10^−10 M to 10^−4 M of final concentration). The fluorescent substrate (L)-Ala-β-naphthylamide (1 mM) is added in a final volume of 100 μL and is incubated at 37° C. for 15 minutes. The fluorescence values are measured on a Berthold Twinkle LB 970 (λex=340 nm, λem=405 nm, energy of the lamp 10000). Samples containing 0% hydrolysis were obtained by adding the substrate to the buffer and samples having a relative activity of 100% were prepared without inhibitor. The percentage cleavage was evaluated and compared with a relative activity of 100%, and the IC50 values were determined as a consequence. The Ki values of the inhibitors (average of at least three double independent assays) were calculated using the equation Ki=IC50/(1+[S]/Km).

Experiment [2] has as its target T2, Neprilysin (NEP), purified from rabbit kidney (Oryctolagus cuniculus, UniProt P08049).
T2 construct: Neprilysin, purified from rabbit kidney; from tissue; host or cells: rabbit kidney
T2 sequence (P08049 1-750): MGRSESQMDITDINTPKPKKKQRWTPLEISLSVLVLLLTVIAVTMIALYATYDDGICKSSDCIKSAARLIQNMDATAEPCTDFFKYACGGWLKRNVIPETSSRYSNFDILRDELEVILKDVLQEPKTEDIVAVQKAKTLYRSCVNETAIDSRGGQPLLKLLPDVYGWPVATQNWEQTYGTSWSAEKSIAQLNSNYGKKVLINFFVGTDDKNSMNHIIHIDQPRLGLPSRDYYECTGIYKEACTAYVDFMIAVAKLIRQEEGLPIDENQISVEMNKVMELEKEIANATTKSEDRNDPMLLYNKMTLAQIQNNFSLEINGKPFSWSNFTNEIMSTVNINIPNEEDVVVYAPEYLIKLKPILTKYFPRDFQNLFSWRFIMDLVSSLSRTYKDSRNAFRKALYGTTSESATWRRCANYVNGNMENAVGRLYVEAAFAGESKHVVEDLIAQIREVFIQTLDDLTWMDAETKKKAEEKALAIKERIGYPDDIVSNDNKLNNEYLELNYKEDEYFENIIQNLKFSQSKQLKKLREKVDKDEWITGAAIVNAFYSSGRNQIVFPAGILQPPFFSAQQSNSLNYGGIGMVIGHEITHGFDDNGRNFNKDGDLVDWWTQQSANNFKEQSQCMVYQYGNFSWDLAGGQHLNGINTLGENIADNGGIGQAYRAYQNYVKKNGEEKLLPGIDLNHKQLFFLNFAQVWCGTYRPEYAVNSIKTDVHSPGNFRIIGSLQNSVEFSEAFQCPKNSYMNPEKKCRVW
Put plainly: Neprilysin (NEP) assay, fluorigenic substrate Dansyl-Gly-(NO2)Phe-β-Ala. In kind it is biochemical. The note with it: rabbit kidney NEP 200 ng/mL, substrate 20 μM, 50 mM Tris pH 7.4, 37° C.; read-out: NEP (nM), inhibitory power Ki. As to the method:
as §1, §2, §3
Neprilysin, purified from rabbit kidney (Aubry M et al. (1987), Biochem Cell Biol 65, 398-404), is used at final 200 ng/mL in 50 mM Tris buffer pH 7.4. The substrate, Dansyl-Gly-(NO2)Phe-β-Ala (Goudreau N et al. (1994), Anal Biochem, 219, 87-95) (Km=37 μM), is dissolved in ethanol and is used at final 20 μM. Increasing concentrations (from 10^−10 to 10^−3 M) of inhibitors are pre-incubated for 15 min at 37° C. with NEP in 50 mM Tris buffer, pH 7.4. The substrate is next added and the incubation is continued for 60 min. The reaction is stopped by placing the plate in ice for 10 min. The reading of the fluorescence emitted is carried out in a fluorimeter at λex=355 nm, λem=535 nm.

Experiment [3] deals with T3, aminopeptidase N (APN), recombinant human enzyme (Homo sapiens, UniProt P15144).
T3 construct: purchased R&D System
The experiment is described as follows: Neutral aminopeptidase (APN) assay, substrate L-Ala-β-NA. In kind it is biochemical. The note with it: APN-rh 50 ng/mL, substrate 50 μM, 50 mM Tris pH 7.4, 37° C.; read-out: APN (nM), inhibitory power Ki. As to the method:
as §1, §2, §3
The measurement of the inhibition of aminopeptidase N (APN) is carried out by use of the substrate L-Ala↓β-NA (50 μM, Sigma Aldrich). The inhibitory powers are determined by using recombinant human enzyme (rh) (50 ng/mL; R&D System). Increasing concentrations (from 10^−10 to 10^−3 M) of inhibitors are pre-incubated for 30 min at 37° C. with APN-rh in 50 mM Tris buffer, pH 7.4. The substrate is next added and the incubation is continued for 30 min at 37° C. The reaction is stopped by placing the plate in ice for 10 min. The reading of the emitted fluorescence is measured in a fluorimeter at λex=340 nm, λem=405 nm.

Experiment [4] has as its system male OF1 mice. The experiment is described as follows: Hot plate test on mice, intravenous administration. In kind it is in vivo. The note with it: for analgesic response: mice.

T3 sequence (P15144 whole entry): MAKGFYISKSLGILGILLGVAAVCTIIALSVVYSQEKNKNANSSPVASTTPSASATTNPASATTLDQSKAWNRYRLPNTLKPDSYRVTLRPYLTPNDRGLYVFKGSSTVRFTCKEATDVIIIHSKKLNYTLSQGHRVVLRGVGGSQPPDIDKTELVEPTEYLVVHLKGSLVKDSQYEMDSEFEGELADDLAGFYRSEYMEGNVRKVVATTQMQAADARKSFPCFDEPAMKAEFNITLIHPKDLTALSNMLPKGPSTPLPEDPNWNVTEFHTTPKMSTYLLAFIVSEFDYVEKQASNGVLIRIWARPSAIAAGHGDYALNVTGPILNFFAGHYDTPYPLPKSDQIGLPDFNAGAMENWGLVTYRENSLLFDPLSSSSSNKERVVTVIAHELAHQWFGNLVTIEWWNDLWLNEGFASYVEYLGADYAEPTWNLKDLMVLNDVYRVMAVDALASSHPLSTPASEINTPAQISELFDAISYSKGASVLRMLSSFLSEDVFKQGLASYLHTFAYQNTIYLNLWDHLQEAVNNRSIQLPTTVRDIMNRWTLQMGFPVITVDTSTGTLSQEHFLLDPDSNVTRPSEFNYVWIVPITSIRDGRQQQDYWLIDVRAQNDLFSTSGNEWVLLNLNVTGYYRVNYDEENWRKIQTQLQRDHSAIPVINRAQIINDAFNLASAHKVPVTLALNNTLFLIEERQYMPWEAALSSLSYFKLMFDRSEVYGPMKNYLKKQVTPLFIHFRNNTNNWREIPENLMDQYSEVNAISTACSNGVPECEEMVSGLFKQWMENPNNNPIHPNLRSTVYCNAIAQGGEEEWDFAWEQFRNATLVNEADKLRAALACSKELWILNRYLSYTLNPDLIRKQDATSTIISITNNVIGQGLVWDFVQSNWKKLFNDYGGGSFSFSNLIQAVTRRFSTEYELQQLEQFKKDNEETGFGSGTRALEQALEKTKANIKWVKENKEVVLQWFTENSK

Consider `C[C@H](NC(=O)[C@@H](Cc1ccc(-c2ccccc2)cc1)CN(O)C=O)C(=O)O`, for which the figures for the Ki in experiment [1], in experiment [2] and in experiment [3] were above 10000 nM, 44.1 ± 2.2 nM and 817 ± 80 nM, respectively.
Regarding `C[C@H](NC(=O)[C@H](Cc1ccc(-c2ccccc2)cc1)CN(O)C=O)C(=O)O`, the Ki amounted to 6.1 ± 0.7 nM in experiment [1], 0.08 ± 0.01 nM in experiment [2] and 86 ± 8 nM in experiment [3].
Consider `C[C@H](NC(=O)[C@H](Cc1ccccc1)CN(O)C=O)C(=O)O` [Ia-1, (S)-2-((R)-2-benzyl-3-(N-hydroxyformamido)propanamido) propanoic Acid], for which the results for the Ki in experiment [1], in experiment [2] and in experiment [3] were 7.5 ± 0.4 nM, 3.3 ± 0.7 nM and 143 ± 9 nM, respectively.
Take `O=CN(O)C[C@H](Cc1ccccc1)C(=O)N[C@@H](Cc1ccccc1)C(=O)O` [Ib-2, (S)-2-((S)-2-benzyl-3-(N-hydroxyformamido)propanamido)-3-phenylpropanoic Acid]: the Ki is 23.1 ± 1.1 nM in experiment [2] and above 10000 nM in experiment [3].
As to `CCCCCc1cc(O)c2c(c1)OC(C)(C)[C@@H]1CCC(C)=C[C@@H]21` [THC, reference compound], the analgesic response in experiment [4] (THC alone, 0.375 mg/kg intravenous) stood at 12%.
In the case of `O=CN(O)C[C@@H](Cc1ccccc1)C(=O)N[C@@H](Cc1ccccc1)C(=O)O` [Ib-1, (S)-2-((R)-2-benzyl-3-(N-hydroxyformamido)propanamido)-3-phenylpropanoic Acid], the analgesic response in experiment [4] (Ib-1 10 mg/kg in association with THC 0.375 mg/kg, intravenous coadministration) is 65%; in experiment [4] (compound Ib-1 alone, 10 mg/kg intravenous, vehicle EtOH/Tween 80/Water (1/1/8)) it was 10%. The “analgesic effect of the association (in words)” value in experiment [4] (intravenous association of THC and Ib-1 at inactive doses, 10 min after injection, male OF1 mice) is “considerable synergic analgesic effect”. The results for the Ki in experiment [1], in experiment [2] and in experiment [3] were 26 ± 2 nM, 0.5 ± 0.1 nM and 24 ± 0.4 nM, respectively.
`C[C@H](NC(=O)[C@@H](Cc1ccccc1)CN(O)C=O)C(=O)O` [Ia-2, (S)-2-((S)-2-benzyl-3-(N-hydroxyformamido)propanamido) propanoic Acid]: the inhibition constant Ki is 17.7 ± 0.9 nM in experiment [2] and above 10000 nM in experiment [3].
Take `O=CN(O)C[C@@H](Cc1ccccc1)C(=O)N[C@H](CC(=O)O)Cc1ccccc1` [Ic-1, (S)-3-((R)-2-benzyl-3-(N-hydroxyformamido)propanamido)-4-phenyl butanoic Acid]: the values for the Ki in experiment [1], in experiment [2] and in experiment [3] were 443 ± 75 nM, 6.3 ± 0.3 nM and 12 ± 1.7 nM, respectively.
